In US9382254B2, “Compounds and pharmaceutical compositions thereof for the treatment of cystic fibrosis” (Galapagos NV, priority 2013, dated 2016):
Where two headings read alike, the source gives them in different places.

Assays:
Assay type in all cases: cell-based
CFTR ΔF508 mutant = target: T1, CFTR ΔF508 mutant (Homo sapiens, UniProt P13569, DEL508-508); test: YFP-halide influx assay for the CFTR-ΔF508 mutation (384 well, FDSS/μCell); details: CFBE41o- cells, CFTR-ΔF508, 1×D-PBS, fluorescence after 36 seconds
T1 construct: expressed in transfected cells; host or cells: CFBE41o- (adenoviral transduction)
T1 sequence (P13569 with tags, fused parts or gaps DEL508-508): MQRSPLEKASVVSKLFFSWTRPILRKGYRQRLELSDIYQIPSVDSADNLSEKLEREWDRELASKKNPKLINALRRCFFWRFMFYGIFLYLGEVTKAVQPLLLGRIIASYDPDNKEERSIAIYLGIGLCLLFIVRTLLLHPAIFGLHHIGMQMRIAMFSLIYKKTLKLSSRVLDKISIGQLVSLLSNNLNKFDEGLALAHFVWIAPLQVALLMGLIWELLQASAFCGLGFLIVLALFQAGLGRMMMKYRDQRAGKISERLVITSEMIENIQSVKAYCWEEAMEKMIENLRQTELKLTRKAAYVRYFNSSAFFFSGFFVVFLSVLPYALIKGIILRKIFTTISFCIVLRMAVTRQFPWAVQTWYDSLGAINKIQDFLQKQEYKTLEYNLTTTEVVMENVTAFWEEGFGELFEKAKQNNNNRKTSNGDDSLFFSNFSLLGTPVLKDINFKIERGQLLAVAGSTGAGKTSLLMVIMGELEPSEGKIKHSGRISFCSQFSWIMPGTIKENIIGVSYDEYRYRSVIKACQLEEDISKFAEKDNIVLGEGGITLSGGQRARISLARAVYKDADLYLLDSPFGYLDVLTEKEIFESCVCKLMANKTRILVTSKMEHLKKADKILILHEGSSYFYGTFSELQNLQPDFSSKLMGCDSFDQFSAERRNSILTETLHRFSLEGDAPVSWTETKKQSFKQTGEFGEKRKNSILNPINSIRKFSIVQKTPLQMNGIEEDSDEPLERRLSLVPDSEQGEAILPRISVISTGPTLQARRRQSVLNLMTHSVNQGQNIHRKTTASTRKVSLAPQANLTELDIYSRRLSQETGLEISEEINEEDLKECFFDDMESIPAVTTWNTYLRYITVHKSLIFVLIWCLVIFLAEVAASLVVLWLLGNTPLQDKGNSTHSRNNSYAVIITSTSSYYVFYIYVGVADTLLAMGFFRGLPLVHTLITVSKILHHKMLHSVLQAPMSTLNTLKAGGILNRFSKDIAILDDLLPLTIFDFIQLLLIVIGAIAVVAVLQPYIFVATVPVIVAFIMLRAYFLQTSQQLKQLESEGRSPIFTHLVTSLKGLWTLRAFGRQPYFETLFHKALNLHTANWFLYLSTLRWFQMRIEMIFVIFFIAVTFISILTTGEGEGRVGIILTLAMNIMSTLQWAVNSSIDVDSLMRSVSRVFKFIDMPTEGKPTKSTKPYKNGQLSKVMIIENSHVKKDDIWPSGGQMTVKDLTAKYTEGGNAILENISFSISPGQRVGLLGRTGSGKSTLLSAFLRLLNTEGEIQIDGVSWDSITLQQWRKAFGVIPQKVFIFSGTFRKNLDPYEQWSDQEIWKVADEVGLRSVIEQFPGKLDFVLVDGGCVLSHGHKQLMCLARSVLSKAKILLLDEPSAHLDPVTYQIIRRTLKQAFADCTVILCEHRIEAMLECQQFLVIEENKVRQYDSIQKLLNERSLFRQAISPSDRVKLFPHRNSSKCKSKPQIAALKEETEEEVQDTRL
Procedure, shortened: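 Potentiator read-out as 1−F/F0, F taken 36 s after iodide addition, EC50 fitted against compound concentration. Cells: CFBE41o- expressing ΔF508 CFTR plus halide-sensitive YFP via adenovirus, rescued by 27 °C for 24 h or 24 h modulator at 37 °C.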

CFTR G551D mutant = target: T2, CFTR G551D mutant (Homo sapiens, UniProt P13569, G551D); test: YFP-halide influx assay for the CFTR-G551D mutation; details: HEK293 cells, forskolin 10.67 μM
T2 construct: expressed in transfected cells; host or cells: HEK293 (reverse transfection with plasmid)
T2 sequence (P13569 whole entry G551D): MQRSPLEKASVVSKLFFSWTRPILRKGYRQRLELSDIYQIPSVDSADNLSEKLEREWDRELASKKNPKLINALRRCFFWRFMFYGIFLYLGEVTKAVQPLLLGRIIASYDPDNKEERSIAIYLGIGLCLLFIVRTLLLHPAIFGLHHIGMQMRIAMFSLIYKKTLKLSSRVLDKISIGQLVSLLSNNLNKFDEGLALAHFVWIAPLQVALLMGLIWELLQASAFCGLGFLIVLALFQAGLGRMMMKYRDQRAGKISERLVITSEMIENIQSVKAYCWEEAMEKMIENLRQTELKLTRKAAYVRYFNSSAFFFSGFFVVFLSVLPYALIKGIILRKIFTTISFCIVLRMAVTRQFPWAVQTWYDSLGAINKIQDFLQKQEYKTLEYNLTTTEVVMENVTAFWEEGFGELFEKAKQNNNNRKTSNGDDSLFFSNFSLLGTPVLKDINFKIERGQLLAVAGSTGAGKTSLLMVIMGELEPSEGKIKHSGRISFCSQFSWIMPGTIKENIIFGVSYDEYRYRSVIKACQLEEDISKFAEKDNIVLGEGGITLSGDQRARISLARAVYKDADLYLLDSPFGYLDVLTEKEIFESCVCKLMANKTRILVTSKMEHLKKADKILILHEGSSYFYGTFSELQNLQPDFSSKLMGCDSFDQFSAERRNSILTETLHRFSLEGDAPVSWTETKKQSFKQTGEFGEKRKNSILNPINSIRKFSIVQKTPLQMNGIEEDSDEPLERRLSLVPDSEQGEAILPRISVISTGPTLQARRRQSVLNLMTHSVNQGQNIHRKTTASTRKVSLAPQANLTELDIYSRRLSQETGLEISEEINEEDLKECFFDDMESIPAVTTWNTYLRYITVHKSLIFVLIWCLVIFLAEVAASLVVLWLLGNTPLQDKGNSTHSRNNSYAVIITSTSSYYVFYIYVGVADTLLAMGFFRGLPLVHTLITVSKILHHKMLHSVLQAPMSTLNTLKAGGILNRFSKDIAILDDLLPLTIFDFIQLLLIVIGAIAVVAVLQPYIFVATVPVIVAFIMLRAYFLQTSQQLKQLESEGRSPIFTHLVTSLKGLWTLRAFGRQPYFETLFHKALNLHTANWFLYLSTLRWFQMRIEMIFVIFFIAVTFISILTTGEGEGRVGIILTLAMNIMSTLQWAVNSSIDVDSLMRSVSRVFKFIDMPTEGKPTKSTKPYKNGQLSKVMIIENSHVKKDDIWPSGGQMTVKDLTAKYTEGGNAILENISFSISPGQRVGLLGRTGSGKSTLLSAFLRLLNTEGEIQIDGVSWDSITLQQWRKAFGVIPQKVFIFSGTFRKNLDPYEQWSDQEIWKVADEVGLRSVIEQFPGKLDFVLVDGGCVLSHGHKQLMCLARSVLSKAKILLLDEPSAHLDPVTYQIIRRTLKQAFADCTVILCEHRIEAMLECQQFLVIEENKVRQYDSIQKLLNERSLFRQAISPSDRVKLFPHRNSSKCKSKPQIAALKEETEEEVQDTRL
Procedure, shortened: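 Channel opening potentiation measured as 1−F/F0, where F is YFP fluorescence 7 s after iodide injection and F0 before; EC50 taken from concentration plot. Cells: HEK293 transiently expressing CFTR G551D plus halide-sensitive YFP (H148Q, I152L, F47L), 24 h at 37 °C, 5% CO2.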

CFTR-G178R = target: T3, CFTR-G178R (Homo sapiens, UniProt P13569, G178R); test: YFP-halide influx assay for the CFTR-G178R
T3 construct: expressed in transfected cells
T3 sequence (P13569 whole entry G178R): as the sequence (P13569 whole entry G551D) above, with G178R, D551G counted along it
Source text: (§1) The YFP halide influx assay measures the functionality of the cystic fibrosis Transmembrane Conductance regulator (CFTR) channels. The assay is used to evaluate the capacity of compounds to increase the channel opening of existing mutant CFTR channels in the membrane. It makes use of the observation that the yellow fluorescent protein (YFP) variant YFP H148Q, I152L, […] has its fluorescence substantially quenched by halide ions like Cl^− and I^−. (Galietta, Haggie, & Verkman, 2001)
(§2) For this purpose, HEK293-cells are seeded in 96 well plates. During seeding, the cells are reverse-transfected with plasmid vectors that direct the expression of the CFTR G551D mutant and of the YFP reporter. Cells are incubated at 37° C., 5% CO2 for 24 hours so as to allow for sufficient expression of the CFTR protein.
(§3) The I^−-induced quenching of fluorescence is recorded immediately after injection of I^− for 7 seconds. The capacity of a compound to increase the channel opening is directly correlated with the decrease in fluorescence, and is expressed as (1-(fluorescence after 7 seconds (F)/fluorescence before injection (F0))) and an EC50 can be derived from a (1-F/F0) vs compound concentration plot.
(§4) Similar YHA assays were developed for other channel gating defective or channel conductance defective CFTR mutants to determine effect of compound on channel activity. Examples of mutants are G178R, G1349D, S549N, R117H, R334W. This assay is also used for additional class I CFTR mutants, including G542X, W1282X; class II mutants including N1303K, and for class III mutants including S1251N.

CFTR-G1349D = target: T4, CFTR-G1349D (Homo sapiens, UniProt P13569, G1349D); test: YFP-halide influx assay for the CFTR-G1349D
T4 construct: expressed in transfected cells
T4 sequence (P13569 whole entry G1349D): as the sequence (P13569 whole entry G551D) above, with D551G, G1349D counted along it
Source text: as §1, §2, §3, §4

CFTR-S549N = target: T5, CFTR-S549N (Homo sapiens, UniProt P13569, S549N); test: YFP-halide influx assay for the CFTR-S549N
T5 construct: expressed in transfected cells
T5 sequence (P13569 whole entry S549N): as the sequence (P13569 whole entry G551D) above, with S549N, D551G counted along it
Source text: as §1, §2, §3, §4

CFTR-R117H = target: T6, CFTR-R117H (Homo sapiens, UniProt P13569, R117H); test: YFP-halide influx assay for the CFTR-R117H
T6 construct: expressed in transfected cells
T6 sequence (P13569 whole entry R117H): as the sequence (P13569 whole entry G551D) above, with R117H, D551G counted along it
Source text: as §1, §2, §3, §4

| Compound | EC50 (CFTR ΔF508 mutant) [nM] | EC50 (CFTR G551D mutant) [nM] | EC50 (CFTR-G178R) [nM] | EC50 (CFTR-G1349D) [nM] | EC50 (CFTR-S549N) [nM] | EC50 (CFTR-R117H) [nM] | EC50 (CFTR G551D mutant; class symbol) [nM] | EC50 (CFTR-S549N; class symbol) [nM] |
| --- | --- | --- | --- | --- | --- | --- | --- | --- |
| CC(C)(O)C(=O)Nc1sc(S(=O)(=O)c2ccc(OC(F)F)cc2)cc1C(N)=O [Compound 380, 5-[4-(difluoromethoxy)phenyl] sulfonyl-2-[(2-hydroxy-2-methyl-propanoyl)amino] thiophene-3-carboxamide] | 17.6 | 450 | 107 | 276 | 387 | 144 | – | – |
| CC(CO)C(=O)Nc1sc(S(=O)(=O)c2ccc(Cl)cc2OC(F)(F)F)cc1C(N)=O (stereo not drawn) [Compound 387, 5-[4-chloro-2-(trifluoromethoxy)phenyl] sulfonyl-2-[(3-hydroxy-2-methyl-propanoyl)amino] thiophene-3-carboxamide] | 22.3 | 1410 | 87.6 | 83.6 | 210 | 49.5 | – | – |
| CC(C)(O)C(=O)Nc1sc(S(=O)(=O)c2ccc(C(F)(F)F)nc2)cc1C(N)=O [Compound 389, 2-[(2-hydroxy-2-methyl-propanoyl)amino]-5-[[6-(trifluoromethyl)-3-pyridyl]sulfonyl] thiophene-3-carboxamide] | 46.3 | 813 | 91.5 | 204 | 531 | 247 | – | – |
| CC(C)(O)C(=O)Nc1sc(S(=O)(=O)c2cc(C(F)(F)F)ncc2Cl)cc1C(N)=O [Compound 390, 5-[[5-chloro-2-(trifluoromethyl)-4-pyridyl]sulfonyl]-2-[(2-hydroxy-2-methyl-propanoyl)amino] thiophene-3-carboxamide] | 44.1 | 668 | 103 | 293 | 322 | 221 | – | – |
| CC(C)(O)C(=O)Nc1sc(S(=O)(=O)c2cc(Cl)ccc2OC(F)(F)F)cc1C(N)=O [Compound 391, 5-[5-chloro-2-(trifluoromethoxy)phenyl] sulfonyl-2-[(2-hydroxy-2-methyl-propanoyl)amino] thiophene-3-carboxamide] | 14.9 | 53.2 | 12.9 | 25.9 | 42.1 | 33.8 | – | – |
| CC(C)(O)C(=O)Nc1sc(S(=O)(=O)c2ccc(C#N)cc2OC(F)(F)F)cc1C(N)=O [Compound 393, 5-[4-cyano-2-(trifluoromethoxy)phenyl] sulfonyl-2-[(2-hydroxy-2-methyl-propanoyl)amino] thiophene-3-carboxamide] | 14.8 | 662 | 56.7 | 159 | 256 | 47.6 | – | – |
| CC(C)(O)C(=O)Nc1sc(S(=O)(=O)c2cnc(C(F)(F)F)nc2)cc1C(N)=O [Compound 394, 2-[(2-hydroxy-2-methyl-propanoyl)amino]-5-[2-(trifluoromethyl)pyrimidin-5-yl]sulfonyl-thiophene-3-carboxamide] | 354 | – | 3330 | 3330 | – | 3320 | > 1000 | > 1000 |
| CC(C)(O)C(=O)Nc1sc(S(=O)(=O)c2cnc(C(F)(F)F)cn2)cc1C(N)=O [Compound 397, 2-[(2-hydroxy-2-methyl-propanoyl)amino]-5-[5-(trifluoromethyl)pyrazin-2-yl]sulfonyl-thiophene-3-carboxamide] | 30.7 | 1790 | 417 | 413 | 678 | 259 | – | – |
| CC(C)(O)C(=O)Nc1sc(S(=O)(=O)c2cc(Cl)ccc2OC(F)F)cc1C(N)=O [Compound 401, 5-[5-chloro-2-(difluoromethoxy)phenyl] sulfonyl-2-[(2-hydroxy-2-methyl-propanoyl)amino] thiophene-3-carboxamide] | 6.53 | 126 | 105 | 49.3 | 91.4 | 86.5 | – | – |
| COc1cc(S(=O)(=O)c2cc(C(N)=O)c(NC(=O)C(C)(C)O)s2)c(OC(F)F)cc1F [Compound 402, 5-[2-(difluoromethoxy)-4-fluoro-5-methoxy-phenyl] sulfonyl-2-[(2-hydroxy-2-methyl-propanoyl)amino] thiophene-3-carboxamide] | 25.6 | 1400 | 248 | 3330 | 1020 | 273 | – | – |
| CC(C)(O)C(=O)Nc1sc(S(=O)(=O)c2cc(F)c(F)cc2OC(F)F)cc1C(N)=O [Compound 404, 5-[2-(difluoromethoxy)-4,5-difluoro-phenyl] sulfonyl-2-[(2-hydroxy-2-methyl-propanoyl)amino] thiophene-3-carboxamide] | 14.3 | 553 | 126 | 1490 | 1810 | 283 | – | – |
| CC(C)(O)C(=O)Nc1sc(S(=O)(=O)c2c(F)cc(F)cc2OC(F)F)cc1C(N)=O [Compound 405, 5-[2-(difluoromethoxy)-4,6-difluoro-phenyl]sulfonyl-2-[(2-hydroxy-2-methyl-propanoyl)amino] thiophene-3-carboxamide] | 19.6 | 4520 | > 1000 | 3330 | 1370 | 155 | – | – |
| CC(C)(O)C(=O)Nc1sc(S(=O)(=O)c2ccc(C#N)cc2C(F)(F)F)cc1C(N)=O [Compound 407, 5-[4-cyano-2-(trifluoromethyl)phenyl] sulfonyl-2-[(2-hydroxy-2-methyl-propanoyl)amino] thiophene-3-carboxamide] | 50.6 | 3330 | 1530 | 3330 | 2860 | 262 | – | – |
| CC(C)(O)C(=O)Nc1sc(S(=O)(=O)c2cccc(C(F)(F)F)c2)cc1C(N)=O [Compound 408, 2-[(2-hydroxy-2-methyl-propanoyl)amino]-5-[3-(trifluoromethyl)phenyl]sulfonyl-thiophene-3-carboxamide] | 11 | 1770 | 42.7 | 149 | 525 | 535 | – | – |
| CC(C)(O)C(=O)Nc1sc(S(=O)(=O)c2ncc(C(F)(F)F)cc2F)cc1C(N)=O [Compound 410, 5-[[3-fluoro-5-(trifluoromethyl)-2-pyridyl]sulfonyl]-2-[(2-hydroxy-2-methyl-propanoyl)amino] thiophene-3-carboxamide] | 14.1 | 708 | 80.1 | 120 | 104 | 138 | – | – |
| CC(C)(O)C(=O)Nc1sc(S(=O)(=O)c2ncccc2C(F)(F)F)cc1C(N)=O [Compound 411, 2-[(2-hydroxy-2-methyl-propanoyl)amino]-5-[[3-(trifluoromethyl)-2-pyridyl]sulfonyl] thiophene-3-carboxamide] | 61 | 4920 | 136 | 1040 | 861 | 488 | – | – |
| CC(C)(O)C(=O)Nc1sc(S(=O)(=O)c2nc(C(F)(F)F)ccc2C(F)(F)F)cc1C(N)=O [Compound 412, 5-[[3,6-bis(trifluoromethyl)-2-pyridyl]sulfonyl]-2-[(2-hydroxy-2-methyl-propanoyl)amino] thiophene-3-carboxamide] | 3.57 | 96.4 | 11.1 | 7.47 | 11.3 | 35.4 | – | – |
| Cc1ccc(C(F)(F)F)c(S(=O)(=O)c2cc(C(N)=O)c(NC(=O)C(C)(C)O)s2)n1 [Compound 413, 2-[(2-hydroxy-2-methyl-propanoyl)amino]-5-[[6-methyl-3-(trifluoromethyl)-2-pyridyl]sulfonyl] thiophene-3-carboxamide] | 12.8 | 1480 | 44.7 | 134 | 64.7 | 71.1 | – | – |
